What all share (assay type): biochemical
Test [1] has as its target T1, complex I from mouse heart (Mus musculus) (Mus musculus, UniProt P03888+Q91WD5+Q91YT0+Q9DC70).
T1 construct: gene Ndufv1; native complex purified from mouse heart, whole multi-subunit enzyme, reconstituted in proteoliposomes with E. coli F1FO ATP synthase
Briefly: NAD+ reduction by RET in CI-F1FO proteoliposomes with GlpD, spectrophotometric. To be noted: Δp-linked RET; 1 mM NAD+, ATP, rac-G3P, β-CD, pH 7.5, 32 °C.

Test [2] has as its target T2, Complex I from Y. lipolytica (Yarrowia lipolytica, UniProt Q9B6E8+Q9UUT7+Q9UUU1+Q9UUU2).
T2 construct: gene nubm; complex purified from Y. lipolytica, whole multi-subunit enzyme, reconstituted in proteoliposomes with E. coli F1FO ATP synthase
Description: NADH:O2 oxidoreduction (FET) in CI proteoliposomes with AOX, spectrophotometric. Conditions: 200 μM NADH.

Test [3] has as its target T1, complex I from mouse heart (Mus musculus). The test is described as above. Conditions: 200 μM NADH, membrane Q10, pH 7.5, 32 °C.
Test [4] concerns the target T3, complex I from B. taurus (bovine complex I) (Bos taurus, UniProt P03887+P17694+P25708+P42026).
T3 construct: gene NDUFS2; AOX or GlpD added; with NADH dehydrogenase [ubiquinone] flavoprotein 2, mitochondrial; NADH-ubiquinone oxidoreductase 75 kDa subunit, mitochondrial; NADH dehydrogenase [ubiquinone] iron-sulfur protein 3, mitochondrial; NADH dehydrogenase [ubiquinone] iron-sulfur protein 8, mitochondrial; NADH-ubiquinone oxidoreductase chain 2; NADH-ubiquinone oxidoreductase chain 3; NADH-ubiquinone oxidoreductase chain 4; NADH-ubiquinone oxidoreductase chain 4L; NADH-ubiquinone oxidoreductase chain 5; NADH-ubiquinone oxidoreductase chain 6
The test is described as above.

Test [5] deals with T4, P. pastoris complex I (Komagataella pastoris, UniProt E1UWA8+E1UWB5+E1UWC2).
T4 construct: gene nucm; native complex purified from P. pastoris, whole multi-subunit enzyme, reconstituted in proteoliposomes with E. coli F1FO ATP synthase; with NADH dehydrogenase [ubiquinone] flavoprotein 1, mitochondrial (51 kDa subunit)
The test is described as above. Conditions: membrane Q10 concentration; 200 μM NADH, pH 7.5, 32 °C.

Test [6] deals with T4, P. pastoris complex I. Description: NAD+ reduction by RET in CI-F1FO proteoliposomes with GlpD, spectrophotometric. Conditions: membrane concentration, Δp-linked, ATP, rac-G3P, β-CD, preheated 37 °C 15 min, assay pH 7.5, 32 °C.

Take `NC(=O)c1ccc[n+]([C@@H]2O[C@H](COP(=O)(O)OP(=O)(O)OC[C@H]3O[C@@H](n4cnc5c(N)ncnc54)[C@H](O)[C@@H]3O)[C@@H](O)[C@H]2O)c1` [NAD^+]: in test [1], the “NAD+ reduction by RET in CI-F1FO proteoliposomes with GlpD, spectrophotometric” value is given as “by Δp-linked NAD^+ reduction (Figure 6B), that mouse complex I is capable of RET”.
As for `NC(=O)C1=CN([C@@H]2O[C@H](COP(=O)(O)OP(=O)(O)OC[C@H]3O[C@@H](n4cnc5c(N)ncnc54)[C@H](O)[C@@H]3O)[C@@H](O)[C@H]2O)C=CC1` [NADH], the “NADH:O2 oxidoreduction (FET) in CI proteoliposomes with AOX, spectrophotometric” value in test [2] (membrane Q10, pH 7.5, 32 °C) was “Complex I from Y. lipolytica consistently showed remarkably high rates of NADH oxidation in proteoliposomes”; in test [3], “Representative FET activities for proteoliposomes containing complex I from B. taurus (Bt), M. musculus (Mm)”.
As to `C/C=C(\C)[C@H](O)[C@H](C)/C=C(C)/C=C/C/C(C)=C/Cc1nc(OC)c(OC)c(O)c1C` [piericidin A], half-maximal inhibition in test [4] (IC50) was put at 7.8 ± 0.1 nM.
On to `COC1=C(OC)C(=O)C(C/C=C(\C)CC/C=C(\C)CC/C=C(\C)CC/C=C(\C)CC/C=C(\C)CC/C=C(\C)CC/C=C(\C)CC/C=C(\C)CC/C=C(\C)CCC=C(C)C)=C(C)C1=O` [Q10], for which the “KM (Q10)” value in test [5] was “The KM values for both Q10 and Q10H2 were both lower for P. pastoris”. Also, in test [2] (membrane Q10 as acceptor, pH 7.5, 32 °C), the “NADH:O2 oxidoreduction (FET) in CI proteoliposomes with AOX, spectrophotometric” value is recorded as “Complex I from Y. lipolytica consistently showed remarkably high rates of NADH oxidation in proteoliposomes”.
In the case of `COc1c(O)c(C)c(C/C=C(\C)CC/C=C(\C)CC/C=C(\C)CC/C=C(\C)CC/C=C(\C)CC/C=C(\C)CC/C=C(\C)CC/C=C(\C)CC/C=C(\C)CCC=C(C)C)c(O)c1OC` [Q10H2], the “KM (Q10H2)” value in test [6] is “the KM for Q10H2 was again significantly higher than for Q10”.

Broadly, the IC50 is the concentration at which inhibition is half-maximal. The low end stands for greater potency in that assay, the high end for weaker potency in that assay.

The values above are taken from publication PMC9026280, “Reverse Electron Transfer by Respiratory Complex I Catalyzed in a Modular Proteoliposome System” (Journal of the American Chemical Society, 2022).
